Laboratory results as given in patent US20080194482A1, “Selective Apac2 Receptor Peptide Agonists” (priority 2005, published 2008).
Read-outs that look alike come from different tables or passages of the source. Square brackets hold non-standard residues; d marks the D form. Ends that are not written are not given here. Peptide text beside a SMILES is read from it. * marks the point of attachment. hArg = N=C(N)NCCCC[C@H](N)C(=O)O; Orn = NCCC[C@H](N)C(=O)O; Hexanoyl = CCCCCC(=O)*; Aib = CC(C)(N)C(=O)O

What was measured:
[1] = Rat serum stability (activity remaining, CHO-VPAC2 DiscoveRx read-out); type: in vitro ADME
Experimental: The rat serum is stored at 4° C. until use and is used within two weeks. […] The aliquot is stored with aprotinin at 4° C. The aliquot is stored without aprotinin at 37° C. The aliquots are incubated overnight. […] The plate(s) are washed with cells twice in incubation buffer. The plates are allowed to hold 50 μL incubation media per well for 15 minutes. 50 μL solution per well is transferred to the cells from the plate prepared with 11 serial 5× dilutions of peptide for the 4° C. and 37° C. aliquot for each peptide studied, using the maximal concentrations that are indicated by the primary screen, in duplicate. This step dilutes the peptide concentration by a factor of two. The cells are incubated at room temperature for 30 minutes. […] The cells are incubated on the shaker (300 rpm) for 1 hour. Normal procedure with the DiscoveRx kit is followed. cAMP standards are included in column 12. EC50 values are determined from the cAMP assay data.

[2] = molecular target: T1, human VPAC1 (Homo sapiens, UniProt P32241); assay: Filter binding assay, 125I-labeled VIP tracer, VPAC1 membranes; settings: read-out: Human VPAC1 Receptor Binding (IC50; nM)
T1 construct: expressed in transfected cells
T1 sequence (P32241 31-457): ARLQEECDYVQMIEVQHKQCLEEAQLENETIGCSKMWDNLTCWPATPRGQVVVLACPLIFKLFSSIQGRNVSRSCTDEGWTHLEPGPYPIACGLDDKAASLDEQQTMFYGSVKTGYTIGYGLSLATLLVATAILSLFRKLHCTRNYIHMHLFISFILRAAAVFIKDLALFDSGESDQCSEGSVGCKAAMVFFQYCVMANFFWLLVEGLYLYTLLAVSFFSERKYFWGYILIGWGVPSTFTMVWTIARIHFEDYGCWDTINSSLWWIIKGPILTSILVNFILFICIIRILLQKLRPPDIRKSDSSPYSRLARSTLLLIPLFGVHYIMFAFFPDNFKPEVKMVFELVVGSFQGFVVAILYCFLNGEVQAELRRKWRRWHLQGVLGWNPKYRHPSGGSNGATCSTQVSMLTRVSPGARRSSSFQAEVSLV
Experimental: (§1) For this assay, the solutions and equipment include:
(§2) Presoak solution: 0.5% Polyethyleneamine in Aqua dest
(§3) Buffer for flushing filter plates: 25 mM HEPES pH 7.4
(§4) Blocking buffer: 25 mM HEPES pH 7.4; 0.2% protease free BSA
(§5) Assay buffer: 25 mM HEPES pH 7.4; 0.5% protease free BSA
(§6) Dilution and assay plate: PS-Microplate, U form
(§7) Filtration Plate: Multiscreen FB Opaque Plate; 1.0 μM Type B Glasfiber filter
(§8) In order to prepare the filter plates, the presoak solution is aspirated by vacuum filtration. The plates are flushed twice with 200 μL flush buffer. 200 μL blocking buffer is added to the filter plate. The filter plate is then incubated with 200 μL presoak solution for 1 hour at room temperature.
(§9) The assay plate is filled with 25 μL assay buffer, 25 μL membranes (2.5 μg) suspended in assay buffer, 25 μL compound (agonist) in assay buffer, and 25 μL tracer (about 40000 cpm) in assay buffer. The filled plate is incubated for 1 hour with shaking.
(§10) The transfer from assay plate to filter plate is conducted. The blocking buffer is aspirated by vacuum filtration and washed two times with flush buffer. 90 μL is transferred from the assay plate to the filter plate. The 90 μL transferred from assay plate is aspirated and washed three times with 200 μL flush buffer. The plastic support is removed. It is dried for 1 hour at 60° C. 30 μL Microscint is added. The count is performed.

[3] = molecular target: T2, human PAC1 (Homo sapiens, UniProt P41586); assay: Filter binding assay, 125I-labeled PACAP-27 tracer, PAC1 membranes; settings: read-out: Human PAC1 Receptor Binding (IC50; nM)
T2 construct: expressed in transfected cells
T2 sequence (P41586 21-468): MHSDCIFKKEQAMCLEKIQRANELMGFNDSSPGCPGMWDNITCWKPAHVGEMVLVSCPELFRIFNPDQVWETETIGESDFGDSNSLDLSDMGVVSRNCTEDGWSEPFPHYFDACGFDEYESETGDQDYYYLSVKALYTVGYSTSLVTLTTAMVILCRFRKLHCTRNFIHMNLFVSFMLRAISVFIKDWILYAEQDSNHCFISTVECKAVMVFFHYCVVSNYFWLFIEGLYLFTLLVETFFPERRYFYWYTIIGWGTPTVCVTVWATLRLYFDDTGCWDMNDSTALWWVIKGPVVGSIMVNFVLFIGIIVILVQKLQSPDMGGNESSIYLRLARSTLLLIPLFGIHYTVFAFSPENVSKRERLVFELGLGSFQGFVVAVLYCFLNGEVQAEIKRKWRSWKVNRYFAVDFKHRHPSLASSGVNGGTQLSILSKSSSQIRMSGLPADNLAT
Experimental: as §1, §2, §3, §4, §5, §6, §7, §8, §9, §10

Compound | Rat Serum Stability (estimated purity in % after overnight incub.) [1] [%] | IC50 [2] [nM] | IC50 [3] [nM] | Rat Serum Stability (estimated purity in % after overnight incub.) ([1]; 10 μM peptide in rat serum, overnight at 37° C. vs 4° C. with aprotinin, estimated by EC50, 4C/EC50, 37C) [%]
CCCCCC(=O)N[C@@H](Cc1c[nH]cn1)C(=O)N[C@@H](CO)C(=O)N[C@@H](CC(=O)O)C(=O)N[C@@H](C)C(=O)N[C@H](C(=O)N[C@@H](Cc1ccccc1)C(=O)N[C@H](C(=O)N[C@@H](CC(=O)O)C(=O)N[C@@H](CC(N)=O)C(=O)N[C@@H](Cc1ccc(OC)cc1)C(=O)N[C@H](C(=O)N[C@@H](CCCNC(=N)N)C(=O)N[C@@H](CC(C)C)C(=O)N[C@@H](CCCNC(=N)N)C(=O)NC(C)(C)C(=O)N[C@@H](CCC(N)=O)C(=O)N[C@H](C(=O)N[C@@H](C)C(=O)N[C@@H](C)C(=O)NC(C)(C)C(=O)N[C@@H](CCCCN)C(=O)N[C@@H](Cc1ccc(O)cc1)C(=O)N[C@@H](CC(C)C)C(=O)N[C@@H](CCC(N)=O)C(=O)N[C@@H](CO)C(=O)N[C@H](C(=O)N[C@@H](CCCCN)C(=O)N[C@@H](CC(N)=O)C(=O)N[C@@H](CCCCN)C(=O)N[C@@H](CCCNC(=N)N)C(=O)N[C@@H](Cc1ccc(O)cc1)C(=O)NCC(=O)NCC(=O)N1CCC[C@H]1C(=O)N[C@@H](CO)C(=O)N[C@@H](CO)C(=O)NCC(=O)N[C@@H](C)C(=O)N1CCC[C@H]1C(=O)N1CCC[C@H]1C(=O)N1CCC[C@H]1C(=O)N[C@@H](CO)C(=O)O)[C@@H](C)CC)C(C)C)[C@@H](C)O)[C@@H](C)O)C(C)C [Agonist P358] | 13.43 |  |  | 
CCCCCC(=O)N[C@@H](Cc1c[nH]cn1)C(=O)N[C@@H](CO)C(=O)N[C@@H](CCC(=O)O)C(=O)N[C@@H](C)C(=O)N[C@H](C(=O)N[C@@H](Cc1ccccc1)C(=O)N[C@H](C(=O)N[C@@H](CCC(=O)O)C(=O)N[C@@H](CC(N)=O)C(=O)N[C@@H](Cc1ccc(O)cc1)C(=O)N[C@H](C(=O)N[C@@H](CCCN)C(=O)N[C@@H](CC(C)C)C(=O)N[C@@H](CCCNC(=N)N)C(=O)NC(C)(C)C(=O)N[C@@H](CCC(N)=O)C(=O)N[C@H](C(=O)N[C@@H](C)C(=O)N[C@@H](C)C(=O)NC(C)(C)C(=O)N[C@@H](CCCCN)C(=O)N[C@@H](Cc1ccc(O)cc1)C(=O)N[C@@H](CC(C)C)C(=O)N[C@@H](CCC(N)=O)C(=O)N[C@@H](CO)C(=O)N[C@H](C(=O)N[C@@H](CCCN)C(=O)N[C@@H](CC(N)=O)C(=O)N[C@@H](CCCN)C(=O)NCC(=O)NCC(=O)N1CCC[C@H]1C(=O)N[C@@H](CO)C(=O)N[C@@H](CO)C(=O)NCC(=O)N[C@@H](C)C(=O)N1CCC[C@H]1C(=O)N1CCC[C@H]1C(=O)N1CCC[C@H]1C(=O)N[C@@H](CO)C(=O)O)[C@@H](C)CC)C(C)C)[C@@H](C)O)[C@@H](C)O)C(C)C [Agonist P362] (Hexanoyl-HSEAVFTENYT[Orn]LR[Aib]QVAA[Aib]KYLQSI[Orn]N[Orn]GGPSSGAPPPS-OH; C-terminus assumed) | 82.77 | > 3000 | > 25000 | 
CCCCCC(=O)N[C@@H](Cc1c[nH]cn1)C(=O)N[C@@H](CO)C(=O)N[C@@H](CC(=O)O)C(=O)N[C@@H](C)C(=O)N[C@H](C(=O)N[C@@H](Cc1ccccc1)C(=O)N[C@H](C(=O)N[C@@H](CC(=O)O)C(=O)N[C@@H](CC(N)=O)C(=O)N[C@@H](Cc1ccc(O)cc1)C(=O)N[C@H](C(=O)N[C@@H](CCCN)C(=O)N[C@@H](CC(C)C)C(=O)N[C@@H](CCCNC(=N)N)C(=O)NC(C)(C)C(=O)N[C@@H](CCC(N)=O)C(=O)N[C@H](C(=O)N[C@@H](C)C(=O)N[C@@H](C)C(=O)NC(C)(C)C(=O)N[C@@H](CCCCN)C(=O)N[C@@H](Cc1ccc(O)cc1)C(=O)N[C@@H](CC(C)C)C(=O)N[C@@H](CCC(N)=O)C(=O)N[C@@H](CO)C(=O)N[C@@H](CO)C(=O)N[C@@H](CCCN)C(=O)N[C@@H](CC(N)=O)C(=O)N[C@@H](CCCN)C(=O)NCC(=O)NCC(=O)N1CCC[C@H]1C(=O)N[C@@H](CO)C(=O)N[C@@H](CO)C(=O)NCC(=O)N[C@@H](C)C(=O)N1CCC[C@H]1C(=O)N1CCC[C@H]1C(=O)N1CCC[C@H]1C(=O)N[C@@H](CO)C(=O)O)C(C)C)[C@@H](C)O)[C@@H](C)O)C(C)C [Agonist P382] (Hexanoyl-HSDAVFTDNYT[Orn]LR[Aib]QVAA[Aib]KYLQSS[Orn]N[Orn]GGPSSGAPPPS-OH; C-terminus assumed) | 92.34 | > 3000 | > 25000 | 
CCCCCC(=O)N[C@@H](Cc1c[nH]cn1)C(=O)N[C@@H](CO)C(=O)N[C@@H](CC(=O)O)C(=O)N[C@@H](C)C(=O)N[C@H](C(=O)N[C@@H](Cc1ccccc1)C(=O)N[C@H](C(=O)N[C@@H](CC(=O)O)C(=O)N[C@@H](CC(N)=O)C(=O)N[C@@H](Cc1ccc(O)cc1)C(=O)N[C@H](C(=O)N[C@@H](CCCN)C(=O)N[C@@H](CC(C)C)C(=O)N[C@@H](CCCNC(=N)N)C(=O)NC(C)(C)C(=O)N[C@@H](CCC(N)=O)C(=O)N[C@H](C(=O)N[C@@H](C)C(=O)N[C@@H](CO)C(=O)NC(C)(C)C(=O)N[C@@H](CCCCN)C(=O)N[C@@H](Cc1ccc(O)cc1)C(=O)N[C@@H](CC(C)C)C(=O)N[C@@H](CCC(N)=O)C(=O)N[C@@H](CO)C(=O)N[C@H](C(=O)N[C@@H](CCCN)C(=O)N[C@@H](CC(N)=O)C(=O)N[C@@H](CCCN)C(=O)NCC(=O)NCC(=O)N1CCC[C@H]1C(=O)N[C@@H](CO)C(=O)N[C@@H](CO)C(=O)NCC(=O)N[C@@H](C)C(=O)N1CCC[C@H]1C(=O)N1CCC[C@H]1C(=O)N1CCC[C@H]1C(=O)N[C@@H](CO)C(=O)O)[C@@H](C)CC)C(C)C)[C@@H](C)O)[C@@H](C)O)C(C)C [Agonist P387] (Hexanoyl-HSDAVFTDNYT[Orn]LR[Aib]QVAS[Aib]KYLQSI[Orn]N[Orn]GGPSSGAPPPS-OH; C-terminus assumed) | 74.99 | > 3000 | > 25000 | 
CCCCCC(=O)N[C@@H](Cc1c[nH]cn1)C(=O)N[C@@H](CO)C(=O)N[C@@H](CC(=O)O)C(=O)N[C@@H](C)C(=O)N[C@H](C(=O)N[C@@H](Cc1ccccc1)C(=O)N[C@H](C(=O)N[C@@H](CC(=O)O)C(=O)N[C@@H](CC(N)=O)C(=O)N[C@@H](Cc1ccc(O)cc1)C(=O)N[C@H](C(=O)N[C@@H](Cc1ccccc1)C(=O)N[C@@H](CC(C)C)C(=O)N[C@@H](CCCNC(=N)N)C(=O)NC(C)(C)C(=O)N[C@@H](CCC(N)=O)C(=O)N[C@H](C(=O)N[C@@H](C)C(=O)N[C@@H](C)C(=O)NC(C)(C)C(=O)N[C@@H](CCCCN)C(=O)N[C@@H](Cc1ccc(O)cc1)C(=O)N[C@@H](CC(C)C)C(=O)N[C@@H](CCC(N)=O)C(=O)N[C@@H](CO)C(=O)N[C@H](C(=O)N[C@@H](CCCN)C(=O)N[C@@H](CC(N)=O)C(=O)N[C@@H](CCCN)C(=O)NCC(=O)NCC(=O)N1CCC[C@H]1C(=O)N[C@@H](CO)C(=O)N[C@@H](CO)C(=O)NCC(=O)N[C@@H](C)C(=O)N1CCC[C@H]1C(=O)N1CCC[C@H]1C(=O)N1CCC[C@H]1C(=O)N[C@@H](CO)C(=O)O)[C@@H](C)CC)C(C)C)[C@@H](C)O)[C@@H](C)O)C(C)C [Agonist P369] (Hexanoyl-HSDAVFTDNYTFLR[Aib]QVAA[Aib]KYLQSI[Orn]N[Orn]GGPSSGAPPPS-OH; C-terminus assumed) | 133.76 | > 3000 | > 25000 | 
Hexanoyl-HSDAVFTDNYT[hArg]LR[Aib]QVAA[Aib]KYLQSIKNKRYGGPSSGAPPPS [Agonist P343] |  | > 3000 | > 25000 | 34.46
